Entries after “also recorded” stand apart in the source; their conditions may differ.
Tests used:
[1] = tested on: cynomologus monkey eyes; assay: IOP-lowering effect in cynomologus monkey eyes (lasered, ocular hypertensive); type: in vivo
Procedure: Compound II and PGF2α isopropyl ester (PGF2α iPr) were tested for IOP-lowering effect in cynomologus monkey eyes. The right eyes of the cynomologus monkeys in this study were previously given laser trabeculoplasty to induce ocular hypertension in the lasered eye. Animals had been trained to sit in restraint chairs and conditioned to accept experimental procedures without chemical restraint. IOP was determined with a pneumatonometer after light comeal anesthesia with dilute proparacaine. The test protocol included a five-dose b.i.d. treatment regimen because of the typical delayed response to prostaglandins. The test formulations were administered to the lasered right eyes, and the normal left eyes remained untreated for compound 11, or to both eyes for PGF2α isopropyl ester (PGF2α iPr). Baseline IOP values were determined prior to treatment with the test formulation, and IOP was determined 16 hours after the fourth dose for all compounds, 2, 4, and 6 hours after the fifth dose for compound II, and 1, 3 and 7 hours after the fifth dose for PGF2α iPr. Results are presented in Table 2 as the mean percent reduction of IOP from baseline +/- SEM. Prostaglandins were administered in 30 μL of test formulation.

[2] = tested on: New Zealand (NZA) rabbit eye; assay: ocular irritation in the New Zealand (NZA) rabbit (Hackett/McDonald scoring); type: in vivo
Procedure: Compound II and PGF2α isopropyl ester (PGF2α iPr) were tested for ocular irritation in the New Zealand (NZA) rabbit. The prostaglandins were administered in 30 μL of test formulation. Conjunctival hyperemia, swelling and discharge were evaluated using a system devised to grossly compare the irritation potential of prostaglandins in the NZA rabbit. Using the Hackett/McDonald scoring system (Hackett, R. B. and McDonald, T. O. "Eye Irritation" in Dermatotoxicology, 4th edition, Marzulli, F. N. and Maibach, H. I. editors, Hemisphere Publishing Corp., Washington D.C. (1991)), conjunctival hyperemia, conjunctival swelling, and ocular discharge were graded using a slit-lamp prior to compound instillation and 1, 2, 3, and 5 hours after topical ocular instillation of the test compound. The percentage of eyes scoring +2 or greater for all time points was calculated for each parameter (conjunctival hyperemia, conjunctival swelling, and ocular discharge). To facilitate comparison, PGF2α iPr was administered at the same time as the test agent.

[3] = tested on: intraocular pressure (IOP); details: cited from earlier work
[4] = 3 μg, topical ocular, 1, 2, 3, 5 hours
[5] = 10.0 μg, topical ocular, 1, 2, 3, 5 hours
[6] = 1.0 μg, topical ocular, administered at the same time as the test agent
[7] = 1.0 μg, topical ocular, second of two values, administered at the same time as the test agent

SMILES: CC(C)OC(=O)CCC/C=C\C[C@@H]1[C@@H](SC[C@@H](O)COc2cccc(Cl)c2)[C@H](O)C[C@@H]1O [Compound II, (5Z)-(9S, 11R, 15S)-9, 11, 15-trihydroxy-16-m-chlorophenoxy-13-thia-17,18, 19, 20-tetranor-5-prostenoic acid isopropyl ester]
- Percent IOP Reduction +/-SEM ([1]; 1.0 μg b.i.d., 2 hours after fifth dose (2/5), baseline IOP 31.6 mm Hg): 13.9 +/- 6.8%
- Percent IOP Reduction +/-SEM ([1]; 1.0 μg b.i.d., 4 hours after fifth dose (4/5), baseline IOP 31.6 mm Hg): 8.1 +/- 6.6%
- Percent IOP Reduction +/-SEM ([1]; 1.0 μg b.i.d., 6 hours after fifth dose (6/5), baseline IOP 31.6 mm Hg): 10 +/- 6.2%
- Percent IOP Reduction +/-SEM ([1]; 1.0 μg b.i.d., 16 hours after fourth dose (16/4), baseline IOP 31.6 mm Hg): 4.6 +/- 6.1%
- Percent IOP Reduction +/-SEM ([1]; 3.0 μg b.i.d., 2 hours after fifth dose (2/5), baseline IOP 32.2 mm Hg): 23.3%
- Percent IOP Reduction +/-SEM ([1]; 3.0 μg b.i.d., 4 hours after fifth dose (4/5), baseline IOP 32.2 mm Hg): 24.2 +/- 3.6%
- Percent IOP Reduction +/-SEM ([1]; 3.0 μg b.i.d., 6 hours after fifth dose (6/5), baseline IOP 32.2 mm Hg): 24.9 +/- 3.4%
- Percent IOP Reduction +/-SEM ([1]; 3.0 μg b.i.d., 16 hours after fourth dose (16/4), baseline IOP 32.2 mm Hg): 18.0 +/- 3.0%
- IOP reduction (in words) ([1]; for the time period tested, Table 2): significant degree of IOP reduction
- % Incidence, Conjunctival Hyperemia (eyes scoring +2 or greater for all time points) [2, 4]: 0%
- % Incidence, Conjunctival Swelling (eyes scoring +2 or greater for all time points) [2, 4]: 30%
- % Incidence, Discharge (eyes scoring +2 or greater for all time points) [2, 4]: 0%
- % Incidence, Conjunctival Hyperemia (eyes scoring +2 or greater for all time points) [2, 5]: 23%
- % Incidence, Conjunctival Swelling (eyes scoring +2 or greater for all time points) [2, 5]: 33%
- % Incidence, Discharge (eyes scoring +2 or greater for all time points) [2, 5]: 5%
- ocular irritation / ocular side effects (in words) ([2]; Table 1): attenuates the ocular side effects; also recorded: low incidence of side effects
- ocular irritation / ocular side effects (in words) ([2]; Table 1, listed as 11): low incidence of ocular irritation

SMILES: CCCCC[C@H](O)/C=C/[C@@H]1[C@@H](C/C=C\CCCC(=O)O)[C@@H](O)C[C@H]1O [PGF2α]
- IOP lowering (in words) ([3]; after topical ocular instillation, background): known to lower intraocular pressure (IOP)
- side effects (in words) ([3]; in vivo): can cause conjunctival hyperemia and/or edema as well as inflammation

SMILES: CCCCC[C@H](O)/C=C/[C@@H]1[C@@H](C/C=C\CCCC(=O)OC(C)C)[C@@H](O)C[C@H]1O [PGF2α iPr, PGF2α isopropyl ester, reference compound]
- Percent IOP Reduction +/-SEM ([1]; 1.0 μg b.i.d., both eyes, 1 hour after fifth dose (1/5), baseline IOP 34.8 mm Hg): 27.6%
- Percent IOP Reduction +/-SEM ([1]; 1.0 μg b.i.d., both eyes, 3 hours after fifth dose (3/5), baseline IOP 34.8 mm Hg): 38 +/- 1.7%
- Percent IOP Reduction +/-SEM ([1]; 1.0 μg b.i.d., both eyes, 7 hours after fifth dose (7/5), baseline IOP 34.8 mm Hg): 25.6 +/- 14.4%
- Percent IOP Reduction +/-SEM ([1]; 1.0 μg b.i.d., both eyes, 16 hours after fourth dose (16/4), baseline IOP 34.8 mm Hg): 5.8 +/- 4.0%
- % Incidence, Conjunctival Hyperemia (eyes scoring +2 or greater for all time points) [2, 6]: 58%
- % Incidence, Conjunctival Swelling (eyes scoring +2 or greater for all time points) [2, 6]: 67%
- % Incidence, Discharge (eyes scoring +2 or greater for all time points) [2, 6]: 47%
- % Incidence, Conjunctival Hyperemia (eyes scoring +2 or greater for all time points) [2, 7]: 58%
- % Incidence, Conjunctival Swelling (eyes scoring +2 or greater for all time points) [2, 7]: 63%
- % Incidence, Discharge (eyes scoring +2 or greater for all time points) [2, 7]: 48%
- ocular irritation / ocular side effects (in words) ([2]; Table 1): relatively high incidence of hyperemia, conjunctival swelling and discharge

Source: patent US6172109A, “13-Thia prostaglandins for use in glaucoma therapy” (priority 1998, dated 2001)
